Laboratory results reported in ChEMBL document CHEMBL5126568, “Determination of Slow-Binding HDAC Inhibitor Potency and Subclass Selectivity” (ACS Med Chem Lett, 2022).

How the values were obtained:
Histone deacetylase 2 [1] = biological target: T1, Histone deacetylase 2 (Homo sapiens, UniProt Q92769); conditions: time 60.0 min
Histone deacetylase 1 [2] = biological target: T2, Histone deacetylase 1 (Homo sapiens, UniProt Q13547); assay: Inhibition of full length C-terminal His-tagged HDAC1 (unknown origin) assessed as rate constant (k-1) of EI complex using (Ac-Leu-Gly-Lys(Ac)-AMC as substrate measured every 30 sec for 60 mins by fluorescence based assay
T2 sequence (Q13547 whole entry): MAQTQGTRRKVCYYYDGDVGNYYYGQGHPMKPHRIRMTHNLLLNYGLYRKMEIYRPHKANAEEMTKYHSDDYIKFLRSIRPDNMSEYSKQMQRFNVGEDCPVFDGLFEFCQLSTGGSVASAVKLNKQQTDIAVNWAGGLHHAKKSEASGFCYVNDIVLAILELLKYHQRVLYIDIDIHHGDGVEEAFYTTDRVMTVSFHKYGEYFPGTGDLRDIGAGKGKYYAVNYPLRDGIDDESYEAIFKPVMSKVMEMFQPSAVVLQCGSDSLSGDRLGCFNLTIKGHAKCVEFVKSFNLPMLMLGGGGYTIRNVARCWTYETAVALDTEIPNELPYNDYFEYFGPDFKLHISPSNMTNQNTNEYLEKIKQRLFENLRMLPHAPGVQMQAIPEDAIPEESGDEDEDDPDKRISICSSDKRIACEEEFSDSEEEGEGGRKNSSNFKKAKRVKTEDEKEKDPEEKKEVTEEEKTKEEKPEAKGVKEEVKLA

Histone deacetylase 1 [3] = biological target: T2, Histone deacetylase 1; assay: Inhibition of full length C-terminal His-tagged HDAC1 (unknown origin) using (Ac-Leu-Gly-Lys(Ac)-AMC as substrate preincubated with enzyme for 1 hrs followed by substrate addition and measured after 30 mins by fluorescence based assay
Histone deacetylase 2 [4] = biological target: T1, Histone deacetylase 2; assay: Inhibition of full length C-terminal FLAG-tagged HDAC2 (unknown origin) using (Ac-Leu-Gly-Lys(Ac)-AMC as substrate preincubated with enzyme for 1 hrs followed by substrate addition and measured after 30 mins by fluorescence based assay
Histone deacetylase 1 [5] = biological target: T2, Histone deacetylase 1; assay: Inhibition of full length C-terminal His-tagged HDAC1 (unknown origin) assessed as rate constant (k1) of EI complex using (Ac-Leu-Gly-Lys(Ac)-AMC as substrate measured every 30 sec for 60 mins by fluorescence based assay
Histone deacetylase 2 [6] = biological target: T1, Histone deacetylase 2; assay: Inhibition of full length C-terminal FLAG-tagged HDAC2 (unknown origin) assessed as rate constant (k1) of EI complex using (Ac-Leu-Gly-Lys(Ac)-AMC as substrate measured every 30 sec for 60 mins by fluorescence based assay
Histone deacetylase 2 [7] = biological target: T1, Histone deacetylase 2; assay: Inhibition of full length C-terminal FLAG-tagged HDAC2 (unknown origin) assessed as rate constant (k-1) of EI complex using (Ac-Leu-Gly-Lys(Ac)-AMC as substrate measured every 30 sec for 60 mins by fluorescence based assay
Histone deacetylase 1 [8] = biological target: T2, Histone deacetylase 1; assay: Inhibition of full length C-terminal His-tagged HDAC1 (unknown origin) using (Ac-Leu-Gly-Lys(Ac)-AMC as substrate preincubated with enzyme for 30 mins followed by substrate addition and measured after 30 mins by fluorescence based assay
Histone deacetylase 1 [9] = biological target: T2, Histone deacetylase 1; assay: Inhibition of full length C-terminal His-tagged HDAC1 (unknown origin) using (Ac-Leu-Gly-Lys(Ac)-AMC as substrate preincubated with enzyme for 2 hrs followed by substrate addition and measured after 30 mins by fluorescence based assay
Histone deacetylase 2 [10] = biological target: T1, Histone deacetylase 2; assay: Inhibition of full length C-terminal FLAG-tagged HDAC2 (unknown origin) using (Ac-Leu-Gly-Lys(Ac)-AMC as substrate preincubated with enzyme for 30 mins followed by substrate addition and measured after 30 mins by fluorescence based assay
Histone deacetylase 1 [11] = biological target: T2, Histone deacetylase 1; assay: Inhibition of full length C-terminal His-tagged HDAC1 (unknown origin) assessed as inhibition constant (Ki) using (Ac-Leu-Gly-Lys(Ac)-AMC as substrate measured every 30 sec for 60 mins by fluorescence based assay
Histone deacetylase 1 [12] = biological target: T2, Histone deacetylase 1; conditions: time 60.0 min
Histone deacetylase 2 [13] = biological target: T1, Histone deacetylase 2; assay: Inhibition of full length C-terminal FLAG-tagged HDAC2 (unknown origin) assessed as inhibition constant (Ki) using (Ac-Leu-Gly-Lys(Ac)-AMC as substrate measured every 30 sec for 60 mins by fluorescence based assay
Histone deacetylase 2 [14] = biological target: T1, Histone deacetylase 2; assay: Inhibition of full length C-terminal FLAG-tagged HDAC2 (unknown origin) using (Ac-Leu-Gly-Lys(Ac)-AMC as substrate preincubated with enzyme for 2 hrs followed by substrate addition and measured after 30 mins by fluorescence based assay

T1 sequence (Q92769 whole entry): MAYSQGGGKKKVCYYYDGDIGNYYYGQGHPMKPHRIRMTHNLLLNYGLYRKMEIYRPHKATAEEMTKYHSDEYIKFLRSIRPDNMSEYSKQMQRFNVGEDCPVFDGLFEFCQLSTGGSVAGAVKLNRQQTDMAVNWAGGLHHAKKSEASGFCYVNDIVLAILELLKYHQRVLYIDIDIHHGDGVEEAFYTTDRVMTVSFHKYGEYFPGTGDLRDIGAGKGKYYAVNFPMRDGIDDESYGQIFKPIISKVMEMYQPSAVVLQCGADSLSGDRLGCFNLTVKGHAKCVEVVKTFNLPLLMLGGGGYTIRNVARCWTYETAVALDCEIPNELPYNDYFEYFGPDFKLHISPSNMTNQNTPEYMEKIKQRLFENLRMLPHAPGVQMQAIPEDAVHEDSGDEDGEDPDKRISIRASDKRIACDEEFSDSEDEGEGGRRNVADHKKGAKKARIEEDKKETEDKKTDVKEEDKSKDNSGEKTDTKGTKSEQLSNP

Nc1ccccc1NC(=O)c1ccc(CNC(=O)OCc2cccnc2)cc1
T1/2 (Histone deacetylase 2 [1]): > 4 h

CCCNNC(=O)c1ccc(CNC(=O)/C=C/c2ccccc2)cc1
K (Histone deacetylase 1 [2]): 3 10^-3/min | IC50 (Histone deacetylase 1 [3]): 7.07 nM | IC50 (Histone deacetylase 2 [4]): 24.8 nM | K (Histone deacetylase 1 [5]): 7.8 10^-5/nM/min | K (Histone deacetylase 2 [6]): 5.1 10^-5/nM/min | T1/2 (Histone deacetylase 2 [1]): 2.17 h | K (Histone deacetylase 2 [7]): 5 10^-3/min | IC50 (Histone deacetylase 1 [8]): 11.3 nM | IC50 (Histone deacetylase 1 [9]): 4.89 nM | IC50 (Histone deacetylase 2 [10]): 48 nM | Ki (Histone deacetylase 1 [11]): 40 nM | T1/2 (Histone deacetylase 1 [12]): 3.67 h | Ki (Histone deacetylase 2 [13]): 103 nM | IC50 (Histone deacetylase 2 [14]): 14 nM
